Laboratory results: US9682995B2, “Amino-substituted isothiazoles” (BAYER PHARMA AKTIENGESELLSCHAFT, priority 2013, dated 2017)

Experiments:
[1] = test system: spindle assembly checkpoint; assay: SAC-Formation - Nocodazole-Induced Assay; type: cell-based; conditions: Homo sapiens; HeLa cells, nocodazole 0.1 μg/ml, 24 h, phosphorylated histone H3 on serine 10
How it was run: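 HeLa cells were given nocodazole at 0.1 μg/ml final together with compounds (0.005–20 μM, 0.5% DMSO) for 24 h at 37° C. Mitotic cells were counted by phospho-histone H3 Ser10 immunostaining, with cell number from HOECHST 33342, by high-content imaging. The loss of mitotic cells was fitted with a four-parameter Hill equation.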

[2] = test system: spindle assembly checkpoint; assay: SAC-Formation - Paclitaxel-Induced Assay; type: cell-based; conditions: Homo sapiens; HeLa cells, paclitaxel 0.05 μM, 24 h, phosphorylated histone H3 on serine 10
Excerpt: The spindle assembly checkpoint assures the proper segregation of chromosomes during mitosis. Upon entry into mitosis, chromosomes begin to condensate which is accompanied by the phosphorylation of histone H3 on serine 10. Dephosphorylation of histone H3 on serine 10 begins in anaphase and ends at early telophase. Accordingly, phosphorylation of histone H3 on serine 10 can be utilized as a marker of cells in mitosis. Nocodazole is a microtubule destabilizing substance. Paclitaxel is a microtubule stabilizing compound. Thus, nocodazole as well as paclitaxel interfere with microtubule dynamics and mobilize the spindle assembly checkpoint. […] The mitotic breakthrough can be detected by the decrease of cells with phosphorylation of histone H3 on serine 10. This decline is used as a marker to determine the capability of compounds of the present invention to induce a mitotic breakthrough. The typical morphological alteration of nuclei with a prematurely completed mitosis after SAC-inhibition can be monitored via image analysis routines supporting those findings.
The nocodazole and paclitaxel variations were used to focus on compounds that are capable of inhibiting a SAC induced by both microtubule destabilization as well as microtubule stabilization. When SAC inducing agents and compounds are given simultaneously, inhibitors that effectively block the SAC during formation or abrogation are identified. When cells are incubated with a SAC inducing agent and the SAC interfering compound is given after a defined time, inhibitors are identified that effectively block SAC abrogation.
Cultivated cells of the human cervical tumor cell line HeLa (ATCC CCL-2) were plated at a density of 1000 cells/well in a 1536-well microtiter plate in 2 μl PAA Ham's F12 Medium supplemented with 1% (v/v) glutamine, 1% (v/v) penicillin, 1% (v/v) streptomycin and 10% (v/v) fetal calf serum. After incubation overnight at 37° C., 10 μl/well paclitaxel at a final concentration of 0.05 μM were added to cells. Test compounds solubilized in dimethyl sulfoxide (DMSO) were added at various concentrations (0 μM, as well as in the range of 0.005 μM-20 μM; the final concentration of the solvent DMSO was 0.5% (v/v)). Cells were incubated for 24 h at 37° C. in the presence of test compounds in combination with paclitaxel. Thereafter, cells were fixed in 4% (v/v) paraformaldehyde in phosphate buffered saline (PBS) at 4° C. overnight then permeabilized in 0.1% (v/v) Triton X™ 100 in PBS at room temperature for 20 min and blocked in 0.5% (v/v) bovine serum albumin (BSA) in PBS at room temperature for 15 min. After washing with PBS, 5 μl/well antibody solution (anti-phospho-histone H3 clone 3H10, FITC; Millipore, Cat #16-222; 1:1000 dilution) was added to cells, which were incubated for 2 h at room temperature. Afterwards, cells were washed with PBS and 5 μl/well solution of HOECHST 33342 dye (5 μg/ml) was added to cells and cells were incubated 15 min at room temperature in the dark. Cells were washed twice with PBS then covered with PBS and stored at 4° C. until analysis. Images were acquired with a PERKIN ELMER OPERA™ High-Content Analysis reader. Images were analyzed with image analysis software MetaXpress™ from Molecular devices utilizing the Mitotic Index application module. In this assay both labels HOECHST 33342 and phosphorylated Histone H3 on serine 10 were measured. HOECHST 33342 labels the DNA and is used to count the cell number. The staining of phosphorylated Histone H3 on serine 10 determines the number of mitotic cells. […] Otherwise cells were arrested at G2/M phase of the cell cycle progression. The raw assay data were further analyzed by four-parametric hill equation using Genedata's Assay Analyzer and Condoseo software.

SMILES	IC50 [1]	IC50 [2]
COC(=O)c1cncc(Nc2snc(C)c2C(=O)Nc2ccc(OC)nc2)n1 [Example 101, Methyl 6-({4-[(6-methoxypyridin-3-yl)carbamoyl]-3-methyl-1,2-thiazol-5-yl}amino)pyrazine-2-carboxylate]	1.8 µM	1.5 µM
CCc1ccccc1NC(=O)c1c(C)nsc1Nc1nccnc1C#N [Example 34, 5-[(3-Cyanopyrazin-2-yl)amino]-N-(2-ethylphenyl)-3-methyl-1,2-thiazole-4-carboxamide]	0.95 µM	1.6 µM
COc1ccc(NC(=O)c2c(C)nsc2Nc2cnc3ccc(Cl)cc3n2)cn1 [Example 42, 5-[(7-Chloroquinoxalin-2-yl)amino]-N-(6-methoxypyridin-3-yl)-3-methyl-1,2-thiazole-4-carboxamide]	0.26 µM	0.89 µM
CCc1ccccc1NC(=O)c1c(C)nsc1Nc1nc(C)nc2sccc12 [Example 38, N-(2-Ethylphenyl)-3-methyl-5-[(2-methylthieno[2,3-d]pyrimidin-4-yl)amino]-1,2-thiazole-4-carboxamide]	0.69 µM	0.58 µM
COc1ccc(NC(=O)c2c(C)nsc2Nc2cnc3cc(Cl)ccc3n2)cn1 [Example 23, 5-[(6-Chloroquinoxalin-2-yl)amino]-N-(6-methoxypyridin-3-yl)-3-methyl-1,2-thiazole-4-carboxamide]	0.28 µM	0.5 µM
CCc1ccccc1NC(=O)c1c(C)nsc1Nc1nc2ccccc2o1 [Example 11, 5-(1,3-Benzoxazol-2-ylamino)-N-(2-ethylphenyl)-3-methyl-1,2-thiazole-4-carboxamide]	1.8 µM	2.9 µM
CCc1ccccc1NC(=O)c1c(C)nsc1Nc1ncccc1C#N [Example 8, 5-[(3-Cyanopyridin-2-yl)amino]-N-(2-ethylphenyl)-3-methyl-1,2-thiazole-4-carboxamide]	4.1 µM	18 µM
Cc1nsc(Nc2cncc(C(=O)N3CCCC3)n2)c1C(=O)Nc1ccc(F)c(F)c1 [Example 106, N-(3,4-Difluorophenyl)-3-methyl-5-{[6-(pyrrolidin-1-ylcarbonyl)pyrazin-2-yl]amino}-1,2-thiazole-4-carboxamide]	0.26 µM	0.32 µM
Cc1nsc(Nc2cncc(C(=O)N(C)C)n2)c1C(=O)Nc1ccc(F)c(F)c1 [Example 104, 6-({4-[(3,4-Difluorophenyl)-carbamoyl]-3-methyl-1,2-thiazol-5-yl}amino)-N,N-dimethyl-pyrazine-2-carboxamide]	0.53 µM	7.5 µM
CCOC(=O)c1cnc(Nc2snc(C)c2C(=O)Nc2ccc(F)c(F)c2)o1 [Example 96, Ethyl 2-({4-[(3,4-difluorophenyl)carbamoyl]-3-methyl-1,2-thiazol-5-yl}amino)-1,3-oxazole-5-carboxylate]	1.2 µM	1.4 µM
COc1ccc(NC(=O)c2c(C)nsc2Nc2cccc(C#N)n2)cn1 [Example 37, 5-[(6-Cyanopyridin-2-yl)amino]-N-(6-methoxypyridin-3-yl)-3-methyl-1,2-thiazole-4-carboxamide]	2.4 µM	0.57 µM
COc1ccc(NC(=O)c2c(C)nsc2Nc2ccc(C#N)cn2)cn1 [Example 39, 5-[(5-Cyanopyridin-2-yl)amino]-N-(6-methoxypyridin-3-yl)-3-methyl-1,2-thiazole-4-carboxamide]	1.3 µM	1.3 µM
CCc1ccccc1NC(=O)c1c(C)nsc1Nc1ncnc2ccsc12 [Example 13, N-(2-Ethylphenyl)-3-methyl-5-(thieno[3,2-d]pyrimidin-4-ylamino)-1,2-thiazole-4-carboxamide]	0.59 µM	2.1 µM
CCc1ccccc1NC(=O)c1c(C)nsc1Nc1ncnc2sccc12 [Example 12, N-(2-Ethylphenyl)-3-methyl-5-(thieno[2,3-d]pyrimidin-4-ylamino)-1,2-thiazole-4-carboxamide]	2 µM	6.9 µM

Stronger by IC50 [1], values ahead:

IC50 [1]	IC50 [2]	SMILES
0.22 µM	0.46 µM	CCOC(=O)c1cnn2ccc(Nc3snc(C)c3C(=O)Nc3ccc(F)c(F)c3)nc12 [Example 55, Ethyl 5-({4-[(3,4-difluorophenyl)carbamoyl]-3-methyl-1,2-thiazol-5-yl}amino)-pyrazolo[1,5-a]pyrimidine-3-carboxylate]
0.21 µM	0.26 µM	COc1ccc(NC(=O)c2c(C)nsc2Nc2cnc3cccc(C)c3n2)cn1 [Example 22, N-(6-methoxypyridin-3-yl)-3-methyl-5-[(8-methylquinoxalin-2-yl)amino]-1,2-thiazole-4-carboxamide]
0.15 µM	2 µM	CCc1ccccc1NC(=O)c1c(C)nsc1Nc1cc(C(F)(F)F)ccn1 [Example 18, N-(2-Ethylphenyl)-3-methyl-5-{[4-(trifluoromethyl)pyridin-2-yl]amino}-1,2-thiazole-4-carboxamide]
0.14 µM	0.25 µM	CCOC(=O)c1sc(Nc2snc(C)c2C(=O)Nc2ccccc2CC)nc1C [Example 26, Ethyl 2-({4-[(2-ethylphenyl)carbamoyl]-3-methyl-1,2-thiazol-5-yl}amino)-4-methyl-1,3-thiazole-5-carboxylate]
0.13 µM	0.14 µM	COc1ccc(NC(=O)c2c(C)nsc2Nc2nc3c(C(F)(F)F)cccc3s2)cn1 [Example 48, N-(6-Methoxypyridin-3-yl)-3-methyl-5-{[4-(trifluoromethyl)-1,3-benzothiazol-2-yl]-amino}-1,2-thiazole-4-carboxamide]
0.11 µM	0.17 µM	Cc1nsc(Nc2cc(C#N)ccn2)c1C(=O)Nc1ccc(F)c(F)c1 [Example 27, 5-[(4-Cyanopyridin-2-yl)amino]-N-(3,4-difluorophenyl)-3-methyl-1,2-thiazole-4-carboxamide]
0.067 µM	0.25 µM	Cc1nsc(Nc2cnccn2)c1C(=O)Nc1ccc(Cl)c(F)c1 [Example 56, N-(4-Chloro-3-fluorophenyl)-3-methyl-5-(pyrazin-2-ylamino)-1,2-thiazole-4-carboxamide]
0.06 µM	0.056 µM	Cc1nsc(Nc2cc(C#N)ccn2)c1C(=O)Nc1ccc(OC2CCCCC2)nc1 [Example 118, 5-[(4-Cyanopyridin-2-yl)amino]-N-[6-(cyclohexyloxy)pyridin-3-yl]-3-methyl-1,2-thiazole-4-carboxamide]
0.056 µM	0.028 µM	Cc1nsc(Nc2cnc3ccccc3n2)c1C(=O)Nc1ccc(F)c(F)c1 [Example 50, N-(3,4-Difluorophenyl)-3-methyl-5-(quinoxalin-2-ylamino)-1,2-thiazole-4-carboxamide]
0.051 µM	0.14 µM	CCc1ccccc1NC(=O)c1c(C)nsc1Nc1cnc2ccccc2n1 [Example 19, N-(2-Ethylphenyl)-3-methyl-5-(quinoxalin-2-ylamino)-1,2-thiazole-4-carboxamide]
0.039 µM	0.035 µM	Cc1nsc(Nc2nc3c(C(F)(F)F)cccc3s2)c1C(=O)Nc1ccc(F)c(F)c1 [Example 51, N-(3,4-Difluorophenyl)-3-methyl-5-{[4-(trifluoromethyl)-1,3-benzothiazol-2-yl]-amino}-1,2-thiazole-4-carboxamide]
0.031 µM	0.12 µM	Cc1nsc(Nc2cc(C#N)ccn2)c1C(=O)Nc1ccc(Oc2ccc(F)cc2F)nc1 [Example 114, 5-[(4-Cyanopyridin-2-yl)amino]-N-[6-(2,4-difluorophenoxy)pyridin-3-yl]-3-methyl-1,2-thiazole-4-carboxamide]
